Test results as given in PubChem BioAssay AID192 (DTP/NCI, 2004).
Where “and” joins values, the source holds several entries; their conditions need not be identical. Identical values can stand only once. Inconclusive results and toxic doses are left out.

Test system: BDF1 mice, B16 melanoma ip, median survival T/C
Experiment: NCI In Vivo Anticancer Drug Screen. Data for tumor model B16 Melanoma (intraperitoneal) in B6D2F1 (BDF1) mice
Settings: endpoint: median survival time, higher = longer survival
Procedure, shortened: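 Mice with transplantable tumors; drug vs vehicle groups; endpoint survival or tumor size; value = T/C.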

[1] = dose: 12.5 mg/kg/injection, schedule: Q01DX009 (ip), vehicle: saline with Tween-80
[2] = dose: 25.0 mg/kg/injection, schedule: Q01DX009 (ip), vehicle: saline with Tween-80
[3] = dose: 50.0 mg/kg/injection, schedule: Q01DX009 (ip), vehicle: saline with Tween-80
[4] = dose: 50.0 mg/kg/injection, schedule: Q04DX003 (ip), vehicle: saline with Tween-80
[5] = dose: 6.25 mg/kg/injection, schedule: Q01DX009 (ip), vehicle: saline
[6] = dose: 12.5 mg/kg/injection, schedule: Q01DX009 (ip), vehicle: saline
[7] = dose: 3.13 mg/kg/injection, schedule: Q01DX009 (ip), vehicle: saline with Tween-80
[8] = dose: 6.25 mg/kg/injection, schedule: Q01DX009 (ip), vehicle: saline with Tween-80
[9] = dose: 50.0 mg/kg/injection, schedule: Q01DX009 (ip), vehicle: Klucel (hydroxypropylcellulose) (HPC)
[10] = dose: 100.0 mg/kg/injection, schedule: Q01DX009 (ip), vehicle: Klucel (hydroxypropylcellulose) (HPC)
[11] = dose: 200.0 mg/kg/injection, schedule: Q01DX009 (ip), vehicle: Klucel (hydroxypropylcellulose) (HPC)
[12] = dose: 400.0 mg/kg/injection, schedule: Q01DX009 (ip), vehicle: Klucel (hydroxypropylcellulose) (HPC)

In the case of `CC(NC1=NCCO1)c1cccc2ccccc12` (stereo unspecified), the T/C (dose: 8.0 mg/kg/injection, schedule: Q04DX003 (ip), vehicle: saline with Tween-80) is reported as 102 % of control, the T/C (dose: 12.0 mg/kg/injection, schedule: Q04DX003 (ip), vehicle: saline with Tween-80) is reported as 115 % of control and the T/C [1] is reported as 102 % of control. The T/C (dose: 18.0 mg/kg/injection, schedule: Q04DX003 (ip), vehicle: saline with Tween-80) was 102 % of control, the T/C [2] was 106 % of control and the T/C [3] was 93 % of control. For the same compound, the T/C [4] was 123 % of control.

In the case of `CC(CC1c2ccccc2CCc2ccccc21)CN(C)C` (stereo unspecified), the T/C (dose: 1.25 mg/kg/injection, schedule: Q01DX009 (ip), vehicle: saline) is reported as 98 % of control, the T/C (dose: 2.5 mg/kg/injection, schedule: Q01DX009 (ip), vehicle: saline) is reported as 106 % of control and the T/C (dose: 5.0 mg/kg/injection, schedule: Q01DX009 (ip), vehicle: saline) is reported as 94 % of control. For the same compound, the T/C [5] was 113 % of control, the T/C (dose: 10.0 mg/kg/injection, schedule: Q01DX009 (ip), vehicle: saline) was 106 % of control and the T/C [6] was 119 % of control. The T/C (dose: 20.0 mg/kg/injection, schedule: Q01DX009 (ip), vehicle: saline) was 106 % of control, the T/C (dose: 40.0 mg/kg/injection, schedule: Q01DX009 (ip), vehicle: saline) was 101 % of control and the T/C (dose: 80.0 mg/kg/injection, schedule: Q01DX009 (ip), vehicle: saline) was 92 % of control.

For `CC1=CCC=C(CNc2ncnc3nc[nH]c23)C1`, the T/C [7] was 102 % of control, the T/C [8] was 102 % of control and the T/C [1] was 90 % of control. For the same compound, the T/C (dose: 12.5 mg/kg/injection, schedule: Q04DX003 (ip), vehicle: saline with Tween-80) was 100 % of control, the T/C (dose: 25.0 mg/kg/injection, schedule: Q04DX003 (ip), vehicle: saline with Tween-80) was 102 % of control and the T/C [3] was 88 % of control. For the same compound, the T/C [4] was 102 % of control.

With `Cc1cccc(NC(=O)Nc2ccccc2Cl)n1` the T/C [9] was 90 % of control, the T/C [10] was 94 % of control and the T/C [11] was 94 % of control.

With `O=c1oc(/C=C/c2ccccc2)nc2cc(Cl)ccc12` the T/C [10] was 109 % of control.

In the case of `CCCCCCCCSCCO`, the T/C [1] is reported as 102 % of control and the T/C [2] is reported as 97 % of control.

In the case of `CC(=O)NC1=C(N2CC2)C(=O)C(NC(C)=O)=C(N2CC2)C1=O`, the T/C (dose: 0.12 mg/kg/injection, schedule: Q01DX009 (ip), vehicle: saline with Tween-80) is reported as 106 % of control and 112 % of control, the T/C (dose: 0.25 mg/kg/injection, schedule: Q01DX005 (ip), vehicle: saline with Tween-80) is reported as 103 % of control and 109 % of control and the T/C (dose: 0.25 mg/kg/injection, schedule: Q01DX009 (ip), vehicle: saline with Tween-80) is reported as 107 % of control and 112 % of control. The T/C (dose: 0.5 mg/kg/injection, schedule: Q01DX005 (ip), vehicle: saline with Tween-80) was 107 % of control, the T/C (dose: 0.5 mg/kg/injection, schedule: Q01DX009 (ip), vehicle: saline with Tween-80) was 124 % of control and the T/C (dose: 1.0 mg/kg/injection, schedule: Q01DX005 (ip), vehicle: saline with Tween-80) was 116 % of control and 121 % of control. For the same compound, the T/C (dose: 2.0 mg/kg/injection, schedule: Q01DX009 (ip), vehicle: saline with Tween-80) was 157 % of control, the T/C (dose: 7.0 micrograms/kg/injection, schedule: Q01DX009 (ip), vehicle: saline) was 102 % of control and the T/C (dose: 15.0 micrograms/kg/injection, schedule: Q01DX009 (ip), vehicle: saline) was 95 % of control. The T/C (dose: 31.0 micrograms/kg/injection, schedule: Q01DX009 (ip), vehicle: saline) was 92 % of control, the T/C (dose: 62.0 micrograms/kg/injection, schedule: Q01DX009 (ip), vehicle: saline) was 116 % of control and the T/C (dose: 125.0 micrograms/kg/injection, schedule: Q01DX009 (ip), vehicle: saline) was 95 % of control.

For `C/C=C/CNc1ccc(C)cc1`, the T/C [2] was 102 % of control, the T/C [3] was 102 % of control and the T/C (dose: 100.0 mg/kg/injection, schedule: Q01DX009 (ip), vehicle: saline with Tween-80) was 92 % of control.

With `NCCSC(C[N+](=O)[O-])c1ccc2c(c1)OCO2` (stereo unspecified) the T/C [4] was 102 % of control, the T/C (dose: 100.0 mg/kg/injection, schedule: Q04DX003 (ip), vehicle: saline with Tween-80) was 105 % of control and the T/C (dose: 200.0 mg/kg/injection, schedule: Q04DX003 (ip), vehicle: saline with Tween-80) was 105 % of control.

`O=C(Nc1ccccc1F)c1ccc(Cl)c(Cl)c1` was tested, and the T/C [9] was 100 % of control, the T/C [10] was 87 % of control and the T/C [11] was 90 % of control. The T/C [12] was 94 % of control.

With `CNC(=O)Nc1ccccc1C(=O)NN` the T/C (dose: 25.0 mg/kg/injection, schedule: Q01DX009 (ip), vehicle: Klucel (hydroxypropylcellulose) (HPC)) was 106 % of control, the T/C [9] was 100 % of control and the T/C [10] was 100 % of control. For the same compound, the T/C [11] was 97 % of control.

In the case of `CC(=O)OC(CC(=O)CC(O)(C(F)(F)F)C(F)(F)F)(C(F)(F)F)C(F)(F)F`, the T/C (dose: 3.13 mg/kg/injection, schedule: Q01DX009 (ip), vehicle: saline) is reported as 102 % of control, the T/C (dose: 3.13 mg/kg/injection, schedule: Q04DX003 (ip), vehicle: saline) is reported as 97 % of control and the T/C [5] is reported as 107 % of control. The T/C (dose: 6.25 mg/kg/injection, schedule: Q04DX003 (ip), vehicle: saline) was 100 % of control, the T/C [6] was 92 % of control and the T/C (dose: 12.5 mg/kg/injection, schedule: Q04DX003 (ip), vehicle: saline) was 100 % of control.

In the case of `O=C(Nc1cccc(C(F)(F)F)c1)c1ccc(Cl)c(Cl)c1`, the T/C (dose: 50.0 mg/kg/injection, schedule: Q01DX009 (ip), vehicle: gum acacia) is reported as 105 % of control, the T/C (dose: 100.0 mg/kg/injection, schedule: Q01DX009 (ip), vehicle: gum acacia) is reported as 119 % of control and the T/C (dose: 200.0 mg/kg/injection, schedule: Q01DX009 (ip), vehicle: gum acacia) is reported as 113 % of control. For the same compound, the T/C (dose: 400.0 mg/kg/injection, schedule: Q01DX009 (ip), vehicle: gum acacia) was 100 % of control.

For `CCc1cccc[n+]1[O-]`, the T/C (dose: 400.0 mg/kg/injection, schedule: Q01DX009 (ip), vehicle: saline with Tween-80) was 96 % of control and the T/C (dose: 600.0 mg/kg/injection, schedule: Q01DX009 (ip), vehicle: saline with Tween-80) was 96 % of control.

In the case of `CCCC(=O)OCc1cc(=O)n(C)c2c3c4c(cc12)c(C)cc(=O)n4CO3`, the T/C (dose: 3.12 mg/kg/injection, schedule: Q01DX009 (ip), vehicle: Klucel (hydroxypropylcellulose) (HPC)) is reported as 106 % of control, the T/C (dose: 6.25 mg/kg/injection, schedule: Q01DX009 (ip), vehicle: Klucel (hydroxypropylcellulose) (HPC)) is reported as 101 % of control and 110 % of control and the T/C (dose: 12.5 mg/kg/injection, schedule: Q01DX009 (ip), vehicle: Klucel (hydroxypropylcellulose) (HPC)) is reported as 120 % of control. For the same compound, the T/C [9] was 153 % of control.

With `C[n+]1c(/C=C/c2ccc(O)c3ncccc23)[se]c2ccccc21` the T/C (dose: 0.38 mg/kg/injection, schedule: Q01DX009 (ip), vehicle: saline) was 102 % of control, the T/C (dose: 0.75 mg/kg/injection, schedule: Q01DX009 (ip), vehicle: saline) was 109 % of control and the T/C (dose: 1.5 mg/kg/injection, schedule: Q01DX009 (ip), vehicle: saline) was 106 % of control. For the same compound, the T/C (dose: 3.0 mg/kg/injection, schedule: Q01DX009 (ip), vehicle: saline) was 109 % of control and 115 % of control, the T/C (dose: 6.0 mg/kg/injection, schedule: Q01DX009 (ip), vehicle: saline) was 106 % of control and 124 % of control and the T/C (dose: 12.0 mg/kg/injection, schedule: Q01DX009 (ip), vehicle: saline) was 115 % of control. For the same compound, the T/C (dose: 24.0 mg/kg/injection, schedule: Q01DX009 (ip), vehicle: saline) was 122 % of control.

For `CC(=O)OC(C)C1C2=C(C(=O)CC1(C)O)C(=O)c1c(ccc(-c3ccc4c(c3O)C(=O)C3=C(C4=O)C(C(C)OC(C)=O)C(C)(O)CC3=O)c1O)C2=O` (stereo unspecified), the T/C (dose: 1.56 mg/kg/injection, schedule: Q01DX009 (ip), vehicle: saline with Tween-80) was 110 % of control, the T/C [7] was 117 % of control and the T/C [8] was 110 % of control.

For `CCc1c2cc(OC)c(OC)cc2cc2c3cc(OC)c(OC)cc3cc[n+]12` (tested in a mixture with another compound), the T/C (dose: 4.8 mg/kg/injection, schedule: Q01DX009 (ip), vehicle: saline) was 98 % of control, the T/C (dose: 9.5 mg/kg/injection, schedule: Q01DX009 (ip), vehicle: saline) was 98 % of control and the T/C (dose: 19.0 mg/kg/injection, schedule: Q01DX009 (ip), vehicle: saline) was 99 % of control. For the same compound, the T/C (dose: 37.5 mg/kg/injection, schedule: Q01DX009 (ip), vehicle: saline with Tween-80) was 117 % of control, the T/C (dose: 38.0 mg/kg/injection, schedule: Q01DX009 (ip), vehicle: saline) was 95 % of control and the T/C (dose: 75.0 mg/kg/injection, schedule: Q01DX009 (ip), vehicle: saline with Tween-80) was 108 % of control. For the same compound, the T/C (dose: 150.0 mg/kg/injection, schedule: Q01DX009 (ip), vehicle: saline with Tween-80) was 98 % of control.

`CC(C)(O)c1cccc2c(C(C)(C)O)cccc12` was tested, and the T/C [10] was 92 % of control, the T/C [11] was 114 % of control and the T/C [12] was 91 % of control.
